Source: US12121540B2, “CBL inhibitors and compositions for use in adoptive cell therapy” (Nurix Therapeutics, Inc., priority 2019, dated 2024)

Legend:
[1] = tested on: human tumor-infiltrating lymphocytes (TIL); experiment: Rapid Expansion Protocol (REP) of TIL; format: cell-based; settings: day 42 (Pre-REP and REP)
Procedure: PBMC, OKT3 antibody (30 ng/mL), complete medium (“CM”), AIM V media (GIBCO/BRL), and TIL effector cells were combined, mixed, and aliquoted to a 75 cm^2 tissue culture flask. Flasks were incubated upright at 37° C. in 5% CO2. […] About 14 days after initiation of the REP, cells were harvested and cryopreserved for future experimental analysis.

E.G7-OVA tumors = experiment: Adoptive transfer of ex vivo expanded OT-1 cells into E.G7-OVA tumor-bearing mice: antitumor response; format: in vivo, mouse
Excerpt: Antigen specific T cells from transgenic mice can be leveraged as a model for CAR T or TIL expansion ex vivo with a Cbl inhibitor. The OT-1 transgenic animals, that are commercially available, have CD8 T cells that recognize OVA peptide aa 257-264 when presented by the MHC I molecule. CD8+ T cells from OT-1 mice were isolated from a single cell suspension of splenocytes by negative selection (StemCell Technologies cat #19853 EasySep™ Mouse CD8+ T Cell Isolation Kit). Cell were then resuspended in complete media (RPMI1640, 10% heat inactivated FBS, 1× Penicillin/Streptomycin, 1× Glutamine and […]-mercaptoethanol) at concentration of 0.5×10^6 per mL. Six well tissue culture plates (Falcon) were coated with 2 ug/mL of anti-mouse CD3 (Bio Xcell Cat #BE0001-1-R100 mg InVivoMAb anti-mouse CD3ε Clone: 145-2C11) for >3 hrs at 37° C. and washed with PBS (MediaTech) prior to cell addition. […] Following three days of OT-1 T cell activation and expansion the cells were collected, counted and immunophenotyped by flow cytometry by measuring expression of differentiation and additional T cell makers including: CD3, CD4, CD8, CD45, CD25, Granzyme B, CD107a, CD127, PD-1, TIM3, LAG3, KLRG-1, ICOS, TCF1, Ki67, T-bet and FOXP3.
Dead cells were removed (Miltenyi Biotec Cat #130-090-101) prior to transfer in vivo to monitor their trafficking and function in an EG.7 lymphoma model, which expresses the OVA antigen. Approximately five million cells per mouse were transferred to mice having an average tumor burden of about 70 mm^3. Following in vivo transfer of the OT-1 cells, antitumor response was monitored over time and the quality and quantity of immune response were assessed at various time points.
The expanded OT-1 cells were characterized by FACS analysis and transferred into E.G7-OVA mice, which bear ovalbumin (OVA) expressing tumors. Following in vivo transfer of expanded OT-1 cells, antitumor response was monitored over time and the quality and quantity of immune response was assessed at various time points. Analysis included FACS analysis on blood, tumor, and spleen samples. Analysis also included re-stimulation of splenocytes with OVA Class I peptide to evaluate the multifunctionality of the antigen-specific effector T cells.
On Day 0, E.G7-OVA cells were implanted into each mouse. On Day 5, approximately 5×10^6 in vitro expanded OT-1 cells were injected into the tail of each mouse. On Day 9, blood was analyzed by FACS. On Day 14, blood, tumor and spleen samples were analyzed by FACS. On Day 27, blood was analyzed by FACS. Tumor volume was measured approximately every five days through about 50 days post implant.

[2] = tested on: TIL from human ovarian, colon and breast cancer tissues; experiment: Phenotype of TIL expanded in 24 well or GREX10 format (flow cytometry); format: cell-based
Procedure: Initial studies involved TIL expansion with ovarian and CRC tumor tissues (average about 0.5-0.8 g). These were fragmented into multiple pieces (approximately 2 mm^3 in size), and one fragment was added per 24 well plate. […] The wells were then pooled by treatment and total cell numbers were assessed by flow cytometry. Following TIL expansion the phenotypes of the cells were characterized. They were majority CD45RO+ and CD4+ and CD8+.
TIL directly derived from fresh ovarian and colon cancer tissues (fresh, n=8) obtained after 28 days' ex vivo culture of cancer tissue fragments were analyzed by flow cytometry. FIG. 24 provides FACS data showing percentages of central memory(CD45RO+CCR7+) and effector memory (CD45RO+CCR7−) phenotype among CD8+CD45RO+, respectively. FACS results expressed as the mean±SEM. Statistical significance calculated using two-tailed Wilcoxon signed-rank test (*, p<0.05). The CD8 T cells were further characterized by assessing T cell differentiation phenotypic markers; CCR7 and CD45RO. […] This indicates the expansion of a less differentiated, persistent T cell.
TIL directly derived from fresh ovarian, colon and breast cancer tissues (fresh, n=7) obtained after 14 days' ex vivo culture of cancer tissue fragments were analyzed by flow cytometry. FIG. 26 provides FACS data showing percentages of central memory […] phenotype among CD8+CD45RO+, respectively. FACS results were expressed as the mean±SEM.

[3] = Compound stability in complete RPMI with 10% human serum (mass spectrometry); format: physicochemical
Procedure: To assess compound stability, at day 1, 1 μM compound 103 or DMSO was added to complete RMPI containing 10% human serum and stored at either 4° C., 22° C. or 37° C. over an 11 day time period. Concentration of compound 103 was assessed at each indicated timepoint and storage temperature by mass spectrometry. Compound 103 was stable for at least 11 days in RPMI medium (FIG. 33).

[4] = 6000 IU IL-2 + 1 uM compound 103, 28 days, 24 well

In the case of C[C@@H]1CN(Cc2cc3c(c(C(F)(F)F)c2)CN(c2cccc(C4(Cc5nncn5C)COC4)c2)C3=O)CCC1(F)F [compound 103], the “Expansion of TIL (REP), total cell number relative to IL-2 alone” value ([1]; TIL1 (ovary), 0.1 μM Cbl-i) is reported as 40%, the “Expansion of TIL (REP), total cell number relative to IL-2 alone” value ([1]; TIL1 (ovary), 1.0 μM Cbl-i) is reported as 42% and the “Expansion of TIL (REP), total cell number relative to IL-2 alone” value ([1]; TIL1 (ovary), 10 μM Cbl-i) is reported as 32%. The “Expansion of TIL (REP), total cell number relative to IL-2 alone” value ([1]; TIL1 (ovary), IL-2 + 0.1 μM Cbl-i) was 50%, the “Expansion of TIL (REP), total cell number relative to IL-2 alone” value ([1]; TIL1 (ovary), IL-2 + 1.0 μM Cbl-i) was 52% and the “Expansion of TIL (REP), total cell number relative to IL-2 alone” value ([1]; TIL1 (ovary), IL-2 + 10 μM Cbl-i) was 49%. For the same compound, the “Expansion of TIL (REP), total cell number relative to IL-2 alone” value ([1]; TIL3 (ovary), 0.1 μM Cbl-i) was 127%, the “Expansion of TIL (REP), total cell number relative to IL-2 alone” value ([1]; TIL3 (ovary), 1.0 μM Cbl-i) was 150% and the “Expansion of TIL (REP), total cell number relative to IL-2 alone” value ([1]; TIL3 (ovary), 10 μM Cbl-i) was 107%. For the same compound, the “Expansion of TIL (REP), total cell number relative to IL-2 alone” value ([1]; TIL3 (ovary), IL-2 + 0.1 μM Cbl-i) was 193%, the “Expansion of TIL (REP), total cell number relative to IL-2 alone” value ([1]; TIL3 (ovary), IL-2 + 1.0 μM Cbl-i) was 207% and the “Expansion of TIL (REP), total cell number relative to IL-2 alone” value ([1]; TIL3 (ovary), IL-2 + 10 μM Cbl-i) was 197%. The “Expansion of TIL (REP), total cell number relative to IL-2 alone” value ([1]; TIL4 (colon), 0.1 μM Cbl-i) was 80%, the “Expansion of TIL (REP), total cell number relative to IL-2 alone” value ([1]; TIL4 (colon), 1.0 μM Cbl-i) was 80% and the “Expansion of TIL (REP), total cell number relative to IL-2 alone” value ([1]; TIL4 (colon), 10 μM Cbl-i) was 107%. For the same compound, the “Expansion of TIL (REP), total cell number relative to IL-2 alone” value ([1]; TIL4 (colon), IL-2 + 0.1 μM Cbl-i) was 167%, the “Expansion of TIL (REP), total cell number relative to IL-2 alone” value ([1]; TIL4 (colon), IL-2 + 1.0 μM Cbl-i) was 194% and the “Expansion of TIL (REP), total cell number relative to IL-2 alone” value ([1]; TIL4 (colon), IL-2 + 10 μM Cbl-i) was 240%. For the same compound, the “Expansion of TIL (REP), total cell number relative to IL-2 alone” value ([1]; TIL6 (ovary), 0.1 μM Cbl-i) was 51%, the “Expansion of TIL (REP), total cell number relative to IL-2 alone” value ([1]; TIL6 (ovary), 1.0 μM Cbl-i) was 63% and the “Expansion of TIL (REP), total cell number relative to IL-2 alone” value ([1]; TIL6 (ovary), 10 μM Cbl-i) was 49%. For the same compound, the “Expansion of TIL (REP), total cell number relative to IL-2 alone” value ([1]; TIL6 (ovary), IL-2 + 0.1 μM Cbl-i) was 206%, the “Expansion of TIL (REP), total cell number relative to IL-2 alone” value ([1]; TIL6 (ovary), IL-2 + 1.0 μM Cbl-i) was 180% and the “Expansion of TIL (REP), total cell number relative to IL-2 alone” value ([1]; TIL6 (ovary), IL-2 + 10 μM Cbl-i) was 168%. For the same compound, the “Anti-tumor phenotype of transferred T cells vs controls” value (E.G7-OVA tumors; 3-day ex vivo exposure, alone or in combination with IL-2) was “conferred a lasting anti-tumor phenotype for over a month”, the “Inhibition of tumor growth vs IL-2 expanded cells” value (E.G7-OVA tumors; OT-1 cells expanded with compound 103, FIG. 12A) was “more pronounced inhibition of tumor growth” and the “Long-term survival vs IL-2 expanded cells” value (E.G7-OVA tumors; OT-1 cells expanded with compound 103, FIG. 12B) was “improved long-term survival”. The “Inhibition of tumor growth vs single agents alone” value (E.G7-OVA tumors; OT-1 cells expanded with compound 103 plus IL-2, FIG. 12A) was “more pronounced inhibition of tumor growth”, the “Long term survival vs single agents alone” value (E.G7-OVA tumors; OT-1 cells expanded with compound 103 plus IL-2, FIG. 12B) was “superior long term survival” and the “Potency of expanded CD8+ OT-1 cells (tumor volume) vs IL-2 expanded” value (E.G7-OVA tumors; expanded with compound 103 (1 μM) alone, FIGS. 11A and 11B) was “at least as potent”. For the same compound, the “Rejection of established tumors by expanded OT-1 cells” value (E.G7-OVA tumors; mice subcutaneously implanted with E.G7-OVA cells, FIG. 9) was “potent effectors capable of rejecting established tumors”, the “% CD4 T cells vs IL-2 alone” value [2, 4] was “decrease in the % of CD4” and the “CD8 T cells vs IL-2 alone” value [2, 4] was “corresponding increase in CD8”. The “Central memory T cells (CCR7+CD45RO+) among CD8 vs IL-2 alone” value ([2]; IL-2 + compound 103, 28 days, FIG. 24) was “significant increase of central memory T cells”, the “CD8 T cell expansion (% and total numbers)” value ([2]; IL-2 + compound 103, GREX 10, 14 days) was “increased expansion of CD8 T cells” and the “Stability in RPMI medium” value ([3]; 1 μM, complete RPMI with 10% human serum, 4° C., 22° C. or 37° C.) was “at least 11 days”. The “Stability at multiple temperatures” value ([3]; 4° C.-37° C., 11 day period, FIG. 33) was “stable”.
